Measured values published in patent US10508109B2 (priority 2015, dated 2019).
Where a name gives a salt, the structure may show the parent alone. Read-outs that look alike come from different tables or passages of the source.

Tests used:
A549 = test: Cell-based assay, anti-proliferative activity (Cell Counting Kit-8, 72 hours); conditions: Homo sapiens, read-out: IC50 (μM) A549
How it was run: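 Cells were seeded in 96-well plates and exposed to candidate inhibitors. Cellular growth was then determined with the colorimetric kit, and IC50 values were calculated from the growth data.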

HCT-116 = test: as above; conditions: Homo sapiens, read-out: IC50 (μM) HCT-116
How it was run: (§1)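 Cells seeded at 2,000–3,000 per well and exposed 72 h to compound at 0–100 micro-M (2-fold series). Growth measured with CCK-8; IC50 taken as anti-proliferative indicator.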

HFL1 = test: as above; conditions: Homo sapiens, read-out: IC50 (μM) HFL1
How it was run: as §1

PC14 = test: as above; conditions: Homo sapiens, read-out: IC50 (μM) PC14
How it was run: as §1

CCD-18Co = test: as above; conditions: Homo sapiens, read-out: IC50 (μM) CCD-18Co
How it was run: as §1

SUV39H2 = SUV39H2 (Homo sapiens (Human), UniProt Q9H5I1); conditions: read-out: IC50 (μM) Suv 39H2 assay
SUV39H2, sequence (Q9H5I1 whole entry): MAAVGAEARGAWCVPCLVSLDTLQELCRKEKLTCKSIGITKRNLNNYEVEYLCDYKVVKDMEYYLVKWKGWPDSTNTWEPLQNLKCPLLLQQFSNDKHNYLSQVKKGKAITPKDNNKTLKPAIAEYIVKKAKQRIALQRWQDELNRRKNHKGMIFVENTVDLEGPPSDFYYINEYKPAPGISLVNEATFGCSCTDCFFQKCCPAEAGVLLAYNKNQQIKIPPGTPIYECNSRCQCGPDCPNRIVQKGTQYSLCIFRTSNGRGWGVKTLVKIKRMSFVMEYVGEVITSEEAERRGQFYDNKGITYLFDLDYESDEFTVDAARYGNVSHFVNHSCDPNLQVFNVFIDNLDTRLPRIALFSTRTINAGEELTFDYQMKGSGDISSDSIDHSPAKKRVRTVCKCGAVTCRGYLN

[1] = A549 cells, 72 hours, Cell Counting Kit-8
[2] = HCT-116 cells, 72 hours, Cell Counting Kit-8
[3] = HFL1 cells, 72 hours, Cell Counting Kit-8
[4] = PC-14, PC14 cells, 72 hours, Cell Counting Kit-8
[5] = CCD-18Co cells, 72 hours, Cell Counting Kit-8
[6] = A549 cells, Cell Counting Kit-8, 72 hours
[7] = HCT-116 cells, Cell Counting Kit-8, 72 hours
[8] = HFL1 cells, Cell Counting Kit-8, 72 hours
[9] = CCD-18Co cells, Cell Counting Kit-8, 72 hours

| SMILES | IC50 (SUV39H2; enzyme assay) | IC50 (A549; [6]) | IC50 (HCT-116; [7]) | IC50 (HFL1; [8]) | IC50 (CCD-18Co; [9]) | further results |
| --- | --- | --- | --- | --- | --- | --- |
| COc1cc(OC)c(-c2cn3ccc(NC(=O)C(N)CCCCN)cc3n2)cc1Cl (stereo in doubt) [Example 247, (S)-2,6-diamino-N-(2-(5-chloro-2,4-dimethoxyphenyl)imidazo[1,2-a]-pyridin-7-yl)hexanamide] | – | – | – | – | – | IC50 (A549; [1]): 10 µM; IC50 (HCT-116; [2]): 10 µM; IC50 (HFL1; [3]): 10 µM; IC50 (PC14; [4]): 5.7 µM; IC50 (CCD-18Co; [5]): 10 µM |
| CNCC(=O)Nc1ccc(-c2ccn3cc(-c4cc(Cl)c(OC)cc4OC)nc3c2)cc1 [Example 273, N-(4-(2-(5-chloro-2,4-dimethoxyphenyl)imidazo[1,2-a]pyridin-7-yl)phenyl)-2-(methylamino)acetamide hydrochloride] | – | – | – | – | – | IC50 (A549; A549, 72 h): 1.5 µM; IC50 (HCT-116; HCT-116, 72 h): 0.86 µM; IC50 (HFL1; HFL1, 72 h): 1.2 µM; IC50 (PC14; PC-14, 72 h): 1.1 µM; IC50 (CCD-18Co; CCD-18Co, 72 h): 1.1 µM |
| COc1cc(OC)c(-c2cn3ccc(N4CC[C@H](NCc5ccncc5)C4)cc3n2)cc1Cl [Example 298, (S)-1-(2-(5-chloro-2,4-dimethoxyphenyl)imidazo[1,2-a]pyridin-7-yl)-N-(pyridin-4-ylmethyl)pyrrolidin-3-amine trihydrochloride] | – | – | – | – | – | IC50 (A549; [1]): 0.67 µM; IC50 (HCT-116; [2]): 0.5 µM; IC50 (HFL1; [3]): 0.84 µM; IC50 (PC14; [4]): 0.79 µM; IC50 (CCD-18Co; [5]): 1.4 µM |
| CCOC(=O)N1CCN(c2ccn3cc(-c4cc(Cl)c(OC)cc4OC)nc3c2)CC1 [Example 107, ethyl 4-[2-(5-chloro-2,4-dimethoxyphenyl)imidazo[1,2-a]pyridin-7-yl]-piperazine-1-carboxylate] | 0.0116 µM | 2.3 µM | 1.7 µM | 1.7 µM | 3.2 µM | – |
| COc1cc(OC)c(-c2cn3ccc(N4CCNCC4)cc3n2)cc1Cl [Example 17, 2-(5-chloro-2,4-dimethoxyphenyl)-7-(piperazin-1-yl)imidazo[1,2-a]pyridine] | 0.0195 µM | 6.1 µM | 4.5 µM | 3.3 µM | 8.6 µM | – |
| COc1cc(OC)c(-c2cn3cnc(N)cc3n2)cc1Cl [Example 51, 2-(5-chloro-2,4-dimethoxyphenyl)imidazo[1,2-c]pyrimidin-7-amine] | 0.0531 µM | 9.8 µM | 8.9 µM | 8.4 µM | 6.8 µM | – |
| COc1cc(OC)c(-c2cn3ccc(N4CC[C@H](N)C4)nc3n2)cc1Cl [Example 58, (S)-1-(2-(5-chloro-2,4-dimethoxyphenyl)imidazo[1,2-a]pyrimidin-7-yl)-pyrrolidin-3-amine hydrochloride] | – | – | – | – | – | IC50 (SUV39H2): 0.0296 µM; IC50 (A549; A549, 72 h): 14 µM; IC50 (HCT-116; HCT-116, 72 h): 9.4 µM; IC50 (HFL1; HFL1, 72 h): 6.2 µM; IC50 (CCD-18Co; CCD-18Co, 72 h): 13 µM |
| COc1ccc(-c2cn3ccc(N4CCCC4)cc3n2)cc1C#N [Example 21, 2-methoxy-5-(7-(pyrrolidin-1-yl)imidazo[1,2-a]pyridin-2-yl)benzonitrile hydrobromide] | 0.0733 µM | 4.2 µM | 3.1 µM | 2.5 µM | 5.5 µM | – |
| COc1cc(OC)c(-c2cn3ccc(NCCNC(C)=O)cc3n2)cc1Cl [Example 77, N-(2-((2-(5-chloro-2,4-dimethoxyphenyl)imidazo[1,2-a]pyridin-7-yl)amino)ethyl)acetamide] | 0.0101 µM | 30 µM | 21 µM | 15 µM | 31 µM | – |
| COc1cc(OC)c(-c2cn3ccc(N4CCC(N(C)C)CC4)cc3n2)cc1Cl [Example 92, 1-(2-(5-chloro-2,4-dimethoxyphenyl)imidazo[1,2-a]pyridin-7-yl)-N,N-dimethylpiperidin-4-amine] | 0.0135 µM | 6 µM | 7 µM | 5.5 µM | 8.8 µM | – |
| COc1cc(OC)c(-c2cn3cc(N4CCNCC4)ccc3n2)cc1Cl [Example 115, 2-(5-chloro-2,4-dimethoxyphenyl)-6-(piperazin-1-yl)imidazo[1,2-a]-pyridine hydrochloride] | – | – | – | – | – | IC50 (SUV39H2): 0.0179 µM; IC50 (A549; A549, 72 h): 9.4 µM; IC50 (HCT-116; HCT-116, 72 h): 7.7 µM; IC50 (HFL1; HFL1, 72 h): 8.4 µM; IC50 (CCD-18Co; CCD-18Co, 72 h): 13 µM |
| COc1cc(OC)c(-c2cn3ccc(N4CCC(N)C4)cc3n2)cc1C#N (stereo not drawn) [Example 73, 5-[7-(3-aminopyrrolidin-1-yl)imidazo[1,2-a]pyridin-2-yl]-2,4-dimethoxybenzonitrile] | 0.0112 µM | 2.3 µM | 1.5 µM | 1.5 µM | 5.6 µM | – |
| COc1cc(OC)c(-c2cn3ccc(NCCN4CCOCC4)cc3n2)cc1Cl [Example 70, 2-(5-chloro-2,4-dimethoxyphenyl)-N-(2-morpholinoethyl)imidazo[1,2-a]pyridine-7-amine] | 0.0165 µM | 14 µM | 10 µM | 8.4 µM | 14 µM | – |
| COc1cc(OC(C)C)c(-c2cn3ccc(N4CCCC4)cc3n2)cc1Br [Example 53, hydrobromide] | 0.0181 µM | 2.5 µM | 2.4 µM | 1.9 µM | 2.1 µM | – |
| COc1cc(OC)c(-c2cn3ccc(N4CCN(C)CC4)cc3n2)cc1Cl [Example 106, 2-(5-chloro-2,4-dimethoxyphenyl)-7-(4-methylpiperazin-1-yl)imidazo[1,2-a]pyridine] | 0.0167 µM | 6.3 µM | 6.8 µM | 3.9 µM | 6.8 µM | – |
| COc1cc(OC)c(-c2cn3ccc(C4=CCC5(CC4)OCCO5)cc3n2)cc1Cl [Example 117, 2-(5-chloro-2,4-dimethoxyphenyl)-7-(1,4-dioxaspiro[4.5]dec-7-en-8-yl)-imidazo[1,2-a]pyridine] | 0.0633 µM | 3.5 µM | 3 µM | 5.2 µM | 7.7 µM | – |
| COc1cc(OC)c(-c2cn3ccc(N4CCCCC4)cc3n2)cc1Cl [Example 25, 2-(5-chloro-2,4-dimethoxyphenyl)-7-(piperidin-1-yl)imidazo)[1,2-a]pyridine hydrobromide] | 0.0122 µM | 3 µM | 2 µM | 1.4 µM | 2.3 µM | – |
| COc1cc(OC)c(-c2cn3ccc(N4CC[C@@H](NC(=O)OC(C)(C)C)C4)nc3n2)cc1Cl [Example 57, (R)-tert-Butyl (1-(2-(5-chloro-2,4-dimethoxyphenyl)imidazo[1,2-a]pyrimidin-7-yl)-pyrrolidin-3-yl)carbamate] | 0.0108 µM | 7.1 µM | 7.2 µM | 4 µM | 4.8 µM | – |
| COc1cc(OCCN(C)C)c(-c2cn3ccc(N4CCOCC4)cc3n2)cc1Cl [Example 98, 2-(4-chloro-5-methoxy-2-(7-morpholinoimidazo[1,2-a]pyridin-2-yl)-phenoxy)-N,N-dimethylethanamine] | 0.0372 µM | 22 µM | 13 µM | 15 µM | 9.9 µM | – |
| COc1cc(OC)c(-c2cn3ccc(N)nc3n2)cc1Br [Example 2, 2-(5-bromo-2,4-dimethoxyphenyl)imidazo[1,2-a]pyrimidin-7-amine hydrochloride] | – | – | – | – | – | IC50 (SUV39H2): 0.0169 µM; IC50 (A549; A549, 72 h): 18 µM; IC50 (HCT-116; HCT-116, 72 h): 17 µM; IC50 (HFL1; HFL1, 72 h): 16 µM; IC50 (CCD-18Co; CCD-18Co, 72 h): 16 µM |
| COc1cc(OC)c(-c2cn3ccc(C4CCC(=O)CC4)cc3n2)cc1Cl [Example 119, 4-(2-(5-chloro-2,4-dimethoxyphenyl)imidazo[1,2-a]pyridin-7-yl)-cyclohexanone] | 0.0429 µM | – | – | – | – | IC50 (A549; A549, 72 h): 5.8 µM; IC50 (HCT-116; HCT-116, 72 h): 9.7 µM; IC50 (HFL1; HFL1, 72 h): 3.5 µM; IC50 (CCD-18Co; CCD-18Co, 72 h): 3.6 µM |
| COc1cc(OC)c(-c2cn3ccc(N)cc3n2)cc1Br [Example 5, 2-(5-bromo-2,4-dimethoxyphenyl)imidazo[1,2-a]pyridin-7-amine] | 0.0103 µM | 3.6 µM | 3.1 µM | 2.1 µM | 3.8 µM | – |
| COCCCN1CC=C(c2ccn3cc(-c4cc(Cl)c(OC)cc4OC)nc3c2)CC1 [Example 116, 2-(5-Chloro-2,4-dimethoxyphenyl)-7-(1-(3-methoxypropyl)-1,2,3,6-tetrahydropyridin-4-yl)imidazo[1,2-a]pyridine] | 0.0738 µM | 6.1 µM | 7 µM | 6.6 µM | 11 µM | – |
| COc1cc(OC)c(-c2cn3ccc(N4CCC(N)CC4)nc3n2)cc1Cl [Example 42, 1-(2-(5-chloro-2,4-dimethoxyphenyl)imidazo[1,2-a]pyrimidin-7-yl)-piperidin-4-amine hydrochloride] | – | – | – | – | – | IC50 (SUV39H2): 0.079 µM; IC50 (A549; A549, 72 h): 10 µM; IC50 (HCT-116; HCT-116, 72 h): 6.6 µM; IC50 (HFL1; HFL1, 72 h): 4.2 µM; IC50 (CCD-18Co; CCD-18Co, 72 h): 13 µM |
